Where “and” joins values, the source holds several entries; their conditions need not be identical. Equal entries are not always repeated. Where two headings read alike, the source gives them in different places.
Columns and labels:
[1] = system: histone deacetylase (HDAC); assay: Fluorometric HDAC activity assay on extracts of treated HT29 cells; format: cell-based, human; settings: HT29 colon cells treated 72 h at GI50 concentration, lower RFU = decline in HDAC activity, HT29 extract control 5154 ± 40
Method: All values are expressed as RFU.
To study the HDAC activity in HT29 treated cells, a Fluorometric HDAC Activity Assay Kit ab156064 (Abcam, Cambridge, MA, USA) was used and all sample preparations were made based on the manufacturer’s protocol. A total of 10^6 cells/mL of HT29 cells were seeded in DMEM with serum deprivation for 18 h to synchronise the cells. […] Cells were then washed with cold PBS and resuspended in lysis buffer (10 mM Tris HCl (pH 7.5), 10 mM NaCl, 15 mM MgCl2, 250 mM sucrose, 0.5% NP-40 and 0.1 mM EGTA) and lysed on ice for 20 min. Cells were centrifuged through 4 mL of sucrose cushion (30% sucrose, 10mM Tris HCl (pH 7.5), 10 mM NaCl and 3mM MgCl2) at 1300× g for 10 min at 4 °C. Supernatant was discarded and the pellet was washed and resuspended in extraction buffer (50 mM HEPES-KOH (pH 7.5), 420 mM NaCl, 0.5 mM EDTA 2Na, 0.1 mM EGTA and 10% glycerol) and then sonicated for 30 s. Nuclei were lysed for 30 min on ice and centrifuged at 20,000× g for 30 min. The supernatant was collected, and the samples were prepared for the fluorometric assay according to the manufacturer’s protocol (Histone Deacetylase (HDAC) Activity Assay Fluorometric Kit ab156064, Abcam). The changes in the relative fluorescence intensity (expressed as RFU) were recorded each minute over 60 min using the Glo-Max®-Multimode microplate reader (Promega Corporation, Alexandra, VIC, Australia) at an excitation/emission of 355/460 nm.

A431 skin = system: A431 skin; parameters: method as in PMID 36142383, PMID 37173934, PMID 36296713; settings: cited from earlier work
MIA pancreas = system: MIA pancreas; parameters: method as in PMID 36142383, PMID 37173934, PMID 36296713; settings: cited from earlier work
Du145 prostate = system: Du145 prostate; parameters: method as in PMID 36142383, PMID 37173934, PMID 36296713; settings: cited from earlier work
MCF-7 breast = system: MCF-7 breast; parameters: method as in PMID 36142383, PMID 37173934, PMID 36296713; settings: cited from earlier work
BE2-C neuroblastoma = system: BE2-C neuroblastoma; parameters: method as in PMID 36142383, PMID 37173934, PMID 36296713; settings: cited from earlier work
A2780 ovarian = system: A2780 ovarian; parameters: method as in PMID 36142383, PMID 37173934, PMID 36296713; settings: cited from earlier work
U87 glioblastoma = system: U87 glioblastoma; parameters: method as in PMID 36142383, PMID 37173934, PMID 36296713; settings: cited from earlier work
SJ-G2 glioblastoma = system: SJ-G2 glioblastoma; parameters: method as in PMID 36142383, PMID 37173934, PMID 36296713; settings: cited from earlier work
HT29 colon cells [2] = system: HT29 colon cells; parameters: method as in PMID 36142383, PMID 37173934, PMID 36296713; settings: cited from earlier work
H460 lung = system: H460 lung; parameters: method as in PMID 36142383, PMID 37173934, PMID 36296713; settings: cited from earlier work
HT29 colon = system: HT29 colon; parameters: method as in PMID 36142383, PMID 37173934, PMID 36296713; settings: cited from earlier work
HT29 colon cells [3] = assay: TMRE mitochondrial membrane potential (MtMP) assay; format: cell-based, human; settings: GI50 drug concentration (FCCP 20 μM)
Method: This was achieved by determining if the overproduction of ROS induced by these complexes impacts mitochondrial activity by altering MtMP. Briefly, there is evidence showing a strong correlation between increased levels of ROS and mitochondrial impairment. […] The MtMP changes recorded are measured as RFU. […] To investigate the MtMP changes in HT29 treated cells, a TMRE-MtMP Assay Kit (Abcam, Cambridge, MA, USA) was used, as previously described. In 96-well plates, 25,000 cells/mL of HT29 colon cells in DMEM were seeded. Cells were treated with a GI50 drug concentration for each complex. At 24, 48 or 72 h, cells were washed with PBS and stained with tetramethylrhodamine, ethyl ester (TMRE) (1 μM) and incubated for 30 min. TMRE was then removed, and cells were then re-washed with PBS (0.2% BSA), after which phenol red free media was added. The plates were directly scanned to measure fluorescence (expressed as RFU), using the Glo-Max®-Multimode microplate reader (Promega Corporation, Alexandra, VIC, Australia) at an excitation/emission of 549/575 nm. For the positive control, 20 μM carbonyl cyanide 4-(trifluoromethoxy) phenylhydrazone (FCCP)) was added to the cells and incubated for 10 min. The cells were washed with PBS (0.2% BSA) and stained with TMRE (1 μM) for 30 min; this was removed, and phenol red free media was added, and the final solution was scanned as mentioned above.

[4] = system: multiple human cell lines; parameters: method as in PMID 36142383, PMID 37173934, PMID 36296713; settings: average over all cell lines; cited from earlier work
[5] = system: cisplatin-resistant ADDP ovarian variant; parameters: method as in PMID 36142383, PMID 37173934, PMID 36296713; settings: cited from earlier work
[6] = system: non-tumour-derived MCF10A breast line; parameters: method as in PMID 36142383, PMID 37173934, PMID 36296713; settings: cited from earlier work
HT29 colon cells [7] = assay: DCFDA cellular ROS production assay; format: cell-based, human; settings: GI50 drug concentration (TBHP 20 μM)
Method: All values are expressed as relative fluorescence units (RFU).
To evaluate the presence of ROS in treated cells, a DCFDA/H2DCFDA-cellular ROS Assay Kit (Abcam, Cambridge, MA, USA) was used, as previously described. A total of 25,000 cells/mL of HT29 cells in DMEM were seeded in 96-well plates. Cells were washed with 1X kit buffer, and then stained with 25 μM 2′,7′-dichlorofluorescein diacetate (DCFH-DA) and incubated for 45 min. DCFH-DA was then removed, and cells were then re-washed with 1X kit buffer, after which phenol red free media was added. Cells were then treated with a GI50 drug concentration for each complex. The plates were directly scanned to measure fluorescence (relative fluorescence units (RFU)) at the time points indicated the Glo-Max®-Multimode microplate reader (Promega Corporation, Alexandra, VIC, Australia) at an excitation/emission of 485/535 nm, which is directly correlated to the DCFH-DA that is deacetylated by cellular esterases and then oxidised by ROS to the fluorescent compound DCF. To generate the positive control (20 μM tert-butyl hydroperoxide (TBHP)), cells were washed with 1X kit buffer, and stained with DCFDA (25 μM) for 45 min; this was removed and TBHP was added in phenol red free media, and the resulting solution was scanned as described above.

| SMILES | HDAC Inhibition at 72 h [1] | GI50 (A431 skin) [nM] | GI50 (MIA pancreas) [nM] | GI50 (Du145 prostate) [nM] | GI50 (MCF-7 breast) [nM] | GI50 (BE2-C neuroblastoma) [nM] | GI50 (A2780 ovarian) [nM] | GI50 (U87 glioblastoma) [nM] | GI50 (SJ-G2 glioblastoma) [nM] | ROS Production (HT29 colon cells [2]; 24 h) [RFU] | ROS Production (HT29 colon cells [2]; 48 h) [RFU] | ROS Production (HT29 colon cells [2]; 72 h) [RFU] | GI50 (H460 lung) [nM] | GI50 (HT29 colon) [nM] | MtMP Changes (HT29 colon cells [3]; 24 h, control 542 ± 4) [RFU] | MtMP Changes (HT29 colon cells [3]; 48 h, control 507 ± 11) [RFU] | MtMP Changes (HT29 colon cells [3]; 72 h, control 449 ± 10) [RFU] | GI50 [4] [nM] | GI50 [5] [nM] | GI50 [6] [nM] | other results |
| --- | --- | --- | --- | --- | --- | --- | --- | --- | --- | --- | --- | --- | --- | --- | --- | --- | --- | --- | --- | --- | --- |
| Cc1cc2cccnc2c2ncccc12.N[C@H]1CCCC[C@@H]1N.[Pt+2] [5MESS, [Pt^II(5-Mephen)(SS-DACH)]^2+] | 2124 RFU and 2124 ± 21 RFU | 120 ± 25 | 48 ± 2 | 22 ± 3 | 200 ± 12 | 270 ± 38 | 61 ± 10 | 320 ± 26 | 220 ± 10 | 204 ± 4 | 205 ± 3 | 188 ± 3 | 41 ± 5 | 33 ± 4 | 283 ± 4 | 261 ± 9 | 189 ± 11 | 117 ± 12 | 34 ± 2 | 30 ± 2 | – |
| CC(C)(C)OO [TBHP, tert-butyl hydroperoxide] | – | – | – | – | – | – | – | – | – | – | – | – | – | – | – | – | – | – | – | – | ROS Production (HT29 colon cells [7]; 24 h, control 60 ± 3): 614 ± 21 RFU; ROS Production (HT29 colon cells [7]; 48 h, control 63 ± 4): 477 ± 23 RFU; ROS Production (HT29 colon cells [7]; 72 h, control 85 ± 6): 311 ± 18 RFU |
| N.N.O=C([O-])C1(C(=O)[O-])CCC1.[Pt+2] [Carboplatin, cis-diammine(1,1-cyclobutanecarboxylato)platinum(II)] | – | 24000 | > 50000 | 15000 | > 50000 | 19000 | 9200 ± 2900 | > 50000 | 5700 ± 200 | – | – | – | 14000 | > 50000 | – | – | – | 32200 | > 50000 | > 50000 | – |
| Cc1cc2cccnc2c2ncccc12.N[C@H]1CCCC[C@@H]1N.[OH][Pt+2][OH] [5MESS(IV)(OH)2] | 3119 ± 9 RFU | 360 ± 58 | 160 ± 29 | 41 ± 5 | 1200 ± 390 | 1400 ± 300 | 240 ± 9 | 900 ± 58 | 640 ± 70 | 234 ± 1 | 323 ± 9 | 335 ± 2 | 60 ± 5 | 60 ± 6 | 311 ± 3 | 291 ± 9 | 228 ± 7 | 443 ± 81 | 130 ± 22 | 130 ± 19 | – |
| Cc1c(C)c2cccnc2c2ncccc12.N[C@H]1CCCC[C@@H]1N.[OH][Pt+2][OH] [56MESS(IV)(OH)2] | 3011 ± 23 RFU | 120 ± 22 | 43 ± 2.5 | 15 ± 2.6 | 480 ± 140 | 240 ± 22 | 59 ± 7 | 190 ± 23 | 210 ± 45 | 259 ± 3 | 356 ± 11 | 438 ± 7 | 190 ± 150 | 36 ± 7 | 291 ± 9 | 221 ± 5 | 188 ± 5 | 151 ± 50 | 170 ± 120 | 61 ± 7 | – |
| N#CC(C#N)=NNc1ccc(OC(F)(F)F)cc1 [FCCP, carbonyl cyanide 4-(trifluoromethoxy) phenylhydrazone] | – | – | – | – | – | – | – | – | – | – | – | – | – | – | 234 ± 3 | 151 ± 7 | 84 ± 5 | – | – | – | – |
| N[C@H]1CCCC[C@@H]1N.[OH][Pt+2][OH].c1cnc2c(c1)ccc1cccnc12 [PHENSS(IV)(OH)2] | 4107 ± 19 RFU | 4300 ± 530 | 3400 ± 2200 | 310 ± 92 | 16000 | 3000 ± 530 | 800 ± 84 | 4900 ± 610 | 1700 ± 350 | 144 ± 5 | 273 ± 4 | 303 ± 1 | 1700 ± 200 | 710 ± 300 | 328 ± 7 | 314 ± 6 | 234 ± 11 | 3320 ± 880 | 1300 ± 350 | 1700 ± 200 | – |
| O=C1[O][Pt]2([NH][C@@H]3CCCC[C@H]3[NH]2)[O]C1=O (relative stereo) [Oxaliplatin, trans-L(1R,2R-diaminocyclohexane) oxalatoplatinum(II)] | – | 4100 ± 500 | 900 ± 200 | 2900 ± 400 | 500 ± 100 | 900 ± 200 | 160 ± 100 | 1800 ± 200 | 3000 ± 1200 | – | – | – | 1600 ± 100 | 900 ± 200 | – | – | – | 1460 ± 320 | 800 ± 100 | – | – |
| CC(/C=C/C(=O)NO)=C\[C@@H](C)C(=O)c1ccc(N(C)C)cc1 [Trichostatin A (TSA), Trichostatin A] | 749 ± 8 RFU | – | – | – | – | – | – | – | – | – | – | – | – | – | – | – | – | – | – | – | HDAC Inhibition at 72 h ([1]; listed as TSA): 749 RFU |

— PMC10888562 (International Journal of Molecular Sciences, 2024)
